Experimental data: paper PMC11546255, “Exploring the Frontier of Cyclic Dipeptides: A Bioinformatics Approach to Potential Therapeutic Applications in Schizophrenia” (International Journal of Molecular Sciences, 2024)

What was measured:
human SIGMA1 receptor [1] = target: T1, human SIGMA1 receptor (Homo sapiens, UniProt Q99720); assay: SIGMA1 filtration radioligand binding assay ([3H]DTG, membranes of transfected HEK293 cells); design: expressed in transfected cells; membrane/cell debris preparation; settings: for SIGMA1 % Inhibition of Max Dose / inhibition at 20 µM: Max Dose 20.000 μM
T1 sequence (Q99720 whole entry): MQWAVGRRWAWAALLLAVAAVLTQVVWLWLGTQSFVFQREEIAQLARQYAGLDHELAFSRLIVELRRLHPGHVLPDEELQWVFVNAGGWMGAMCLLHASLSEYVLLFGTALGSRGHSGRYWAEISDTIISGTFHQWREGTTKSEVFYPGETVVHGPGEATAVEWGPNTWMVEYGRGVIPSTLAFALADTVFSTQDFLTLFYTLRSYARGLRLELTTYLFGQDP
Experimental: For SIGMA1 receptor expression in HEK293 cells, the human SIGMA1 receptor (U75283) in pcDNA 3.1(+) (Promega Corp., Madison, WI, USA) was used. In total, 2 μg of DNA was transfected in HEK293 cells (1,000,000 cells/dish) using FuGENE® HD Transfection Reagent (Promega Corp., Madison, WI, USA) according to the manufacturer’s recommendations. After 24 h, the medium was replaced by a medium containing the G418 antibiotic (300 μg/mL) (Burlington, MA, USA). The survival clones were scraped and cultured in individual dishes. After the cell amplification, they were harvested with trypsin and homogenized, then centrifuged at 50,000× g for 1 h, and the cell debris was used for the binding assay.
A SIGMA1 receptor-enriched membrane preparation was utilized for the binding assays at a 1.1 mg/mL concentration. Each assay well was loaded with 13 μg of this membrane preparation to ensure consistent receptor availability across all experimental conditions.
This methodical preparation ensures that the assay conditions are reproducible and that the concentration-dependent effects of the compounds can be accurately evaluated.
Reference and test compounds were diluted and transferred sequentially to the assay plate. We added non-specific binding compounds (low control, LC) and DMSO as the total binding high control (HC) according to the non-specific binding plate layout. We added 100 μL of the membrane stock solution and 100 μL of the radiolabeled ligand to the plate. We sealed the plates and shook them at 300 rpm under specified conditions. We filtered the reaction mixture through GF/B plates using a Filtermate-Harvester (PerkinElmer, Waltham, MA, USA, Cat: C961961), followed by washing with cold wash buffer, and dried and sealed the filter plates.
We added non-specific binding compounds (as the LC) and DMSO as the total binding HC according to the non-specific binding plate layout. Then, we added 100 μL of the membrane stock solution and 100 μL of the radiolabeled ligand to the plate. We sealed the plates and shook them at 300 rpm under specified conditions. […] After the binding experiment, we filtered the reaction mixture through GF/B plates using a Perkin Elmer Filtermate Harvester, washing each plate six times with a cold wash buffer. We dried the filter plates for 1 h at 50 °C. After drying, we sealed the bottom of the filter plate wells with Perkin Elmer Unifilter-96 backing tape. […] We counted the 3H on the filters using a Perkin Elmer MicroBeta2 Reader.
We analyzed the data using Prism 5. We fitted dose–response curves and determined the half maximal inhibitory concentration (IC50) using the “log(inhibitor) vs. response-variable slope” model.
We used the Z’-Prime equation for quality control, which can be written as follows: Z′ Factor=1−3×STDEVHC+3×STDEVLC/AVGHC − AVGLC∗100% where STDEVHC is the average standard deviation of MAX, STDEVLC is the average standard deviation of MIN, AVGHC is the average of MAX, and AVGLC is the average of MIN. Z’ must be ≥0.5 as the quality control standard.

human SIGMA1 receptor [2] = target: T1, human SIGMA1 receptor; assay: radioligand binding; filtration competition assay: membranes of HEK293 cells expressing human SIGMA1 (13 ug per well), [3H]DTG at 0.005 uM displaced by the test compound, max dose 20 uM, room temperature, GF/B filter plates
[3] = [3H]DTG 0.005 μM, membranes of HEK293 cells expressing human SIGMA1, read-out: SIGMA1 IC50
[4] = [3H]DTG 0.005 μM, membranes of HEK293 cells expressing human SIGMA1, read-out: SIGMA1 Ki

Row | SIGMA1 % Inhibition of Max Dose (human SIGMA1 receptor [1]) [%] | IC50 (human SIGMA1 receptor [1]; [3]) [µM] | Ki (human SIGMA1 receptor [1]; [4]) [µM] | Compound | also measured
1 | 49.80 | > 20 | > 17.4 | O=C1NC(Cc2ccc(O)cc2)C(=O)N2CC(O)CC12 (centres unmarked) [Cyclo(Hyp-Tyr)] | –
2 | 40.29 | > 20 | > 17.4 | O=C1N[C@@H](Cc2ccc(O)cc2)C(=O)N[C@H]1Cc1ccc(O)cc1 [Cyclo(Tyr-Tyr)] | –
3 | 24.20 | > 20 | > 17.4 | O=C1NC(Cc2ccccc2)C(=O)N2CCCC12 (centres unmarked) [Cyclo(Phe-Pro)] | –
4 | 3.200 | > 20 | > 17.4 | O=C1CNC(=O)CN1 [Cyclo(Gly-Gly)] | –
5 | – | 13.4 | 11.7 | C[C@@H]1NC(=O)[C@H](CCC(N)=O)NC1=O [Cyclo(Ala-Gln)] | inhibition at 20 µM (human SIGMA1 receptor [1]): 59.7%

The next lines start with the compound.

Row | Compound | SIGMA1 % Inhibition of Max Dose (human SIGMA1 receptor [1]) [%] | IC50 (human SIGMA1 receptor [1]; [3]) [µM] | Ki (human SIGMA1 receptor [1]; [4]) [µM] | also measured
6 | O=C1NC(Cc2ccccc2)C(=O)N2CC(O)CC12 (centres unmarked) [Cyclo(Hyp-Phe)] | 54.26 | > 20 | > 17.4 | –
7 | CC(C)C1NC(=O)CNC1=O (centres unmarked) [Cyclo(Val-Gly)] | – | – | – | Ki (human SIGMA1 receptor [1]): 9.95 µM; inhibition at 20 µM (human SIGMA1 receptor [1]): 61.9%; IC50 (human SIGMA1 receptor [1]; SIGMA1 IC50, [3H]DTG 0.005 μM, membranes of HEK293 cells expressing human SIGMA1): 11.5 µM
8 | O=C1N[C@@H](Cc2ccccc2)C(=O)N[C@H]1Cc1ccccc1 [Cyclo(Phe-Phe)] | 39.40 | > 20 | > 17.4 | –
9 | cyclo(Ala-Gln) | – | – | – | % Inhibition of Max Dose (human SIGMA1 receptor [2]): 59.7%; IC50 (human SIGMA1 receptor [2]): 13.4 µM
10 | cyclo(Val-Val) | – | – | – | IC50 (human SIGMA1 receptor [2]): > 20 µM; Ki (human SIGMA1 receptor [2]): > 17.4 µM
11 | C[C@@H]1NC(=O)[C@H](Cc2cnc[nH]2)NC1=O [Cyclo(Ala-His)] | – | 19.4 | 16.9 | inhibition at 20 µM (human SIGMA1 receptor [1]): 50.2%
12 | cyclo(Val-Gly) | – | – | – | % Inhibition of Max Dose (human SIGMA1 receptor [2]): 61.9%; IC50 (human SIGMA1 receptor [2]): 11.5 µM
13 | O=C1CNC(=O)[C@H](Cc2ccc(O)cc2)N1 [Cyclo(Gly-Tyr)] | 42.82 | > 20 | > 17.4 | –
14 | CC1NC(=O)CNC1=O (centres unmarked) [Cyclo(Ala-Gly)] | 44.60 | > 20 | > 17.4 | –
15 | cyclo(Ala-His) | – | – | – | % Inhibition of Max Dose (human SIGMA1 receptor [2]): 50.2%; IC50 (human SIGMA1 receptor [2]): 19.4 µM
